From US11603380B2 (Centre national de la recherche scientifique, priority 2018, dated 2023) come the findings set out here.

Bounds are passed on as bounds.

The experiment has as its system varicella-zoster virus (VZV) TK− (07/1). As to the kind of experiment: microbe, parasite or virus in culture. The experiment is classed as cell-based. Particulars: read-out: EC50 VZV TK− (07/1).

With `CCCCCCCCCCCCCCCCOCCCOP(=O)(CC=C(COC(C)=O)COc1cc(Cl)nc(N)n1)OCOC(=O)OC(C)C` (mixture of isomers) [Compound (8), [(E/Z)-2′-[(2-amino-6-chloro-pyrimidin-4-yl)oxymethyl]-4-[3-hexadecoxypropoxy(isopropoxycarbonyloxymethoxy)phosphoryl]but-2′-enyl]acetate], the EC50 is greater than 20 µM. Consider `CCCCCCCCCCCCCCCCOCCCOP(=O)(C/C=C/COc1cc(N)nc(N)n1)OCOC(=O)OC(C)C` (stereo not drawn) [Compound (2), [[(E)-4-(2,6-diaminopyrimidin-4-yl)oxybut-2′-enyl]-(3-hexadecoxypropoxy)phosphoryl]oxymethyl isopropyl carbonate], for which the EC50 is 0.24 µM.

With “[(E/Z)-2-[[2-[bis(tert-butoxycarbonyl)amino]-6-methoxy-pyrimidin-4-yl]oxymethyl]-4-[3-hexadecoxypropoxy(isopropoxycarbonyloxymethoxy)phosphoryl]but-2′-enyl]acetate [Compound (7)]”, the EC50 is greater than 20 µM.
